Starred links: 1 amine or outer side, 2 acyl side, 3 side chain; linkers in the order of their positions; H or OH if unused. Positions of bridges follow the written chain, without caps; N, C: chain ends. Non-standard residues stand in square brackets, D forms with d. Residues, ends and D or L forms follow the SMILES beside them. Groups on a side chain read outwards from the residue. *: point of attachment. Trp(1-CH2CO2Me) = COC(=O)Cn1cc(C[C@H](N)C(=O)O)c2ccccc21; Trp(1-CH2COOH) = N[C@@H](Cc1cn(CC(=O)O)c2ccccc12)C(=O)O; Benzofuran(2-CO) = O=C(c1cc2ccccc2o1)*; X23 = COc1cc(NC(=S)*)ccc1-n1cnc(Cl)c1; X67 = S=C(Nc1c(Cl)c(Cl)cc(Cl)c1Cl)*; Pyrazinecarbonyl = O=C(c1cnccn1)*; Hyp = O=C(O)[C@@H]1C[C@@H](O)CN1; X29 = c1ccc(Oc2ccc(N*)cc2)cc1; NMeNle = CCCC[C@H](NC)C(=O)O; X20 = O=C(Oc1ccc2ccccc2c1)*; X9 = Fc1ccc(NC(=S)*)c(Cl)c1; NMeA = CN[C@@H](C)C(=O)O; X71 = c1cc2c(cc1N*)OCCO2; Dab = NCC[C@H](N)C(=O)O; X45 = c1ccc2sc(N*)cc2c1; Dap = NC[C@H](N)C(=O)O; X21 = S=C(Nc1ccccn1)*; CO = O=C([*:1])[*:2]
Target: T1, PD-1/PD-L1 (Homo sapiens, UniProt Q9NZQ7)
T1 construct: TVMV protease site linker (C); made in house; host or cells: HEK293T cells
T1 sequence (Q9NZQ7 18-239): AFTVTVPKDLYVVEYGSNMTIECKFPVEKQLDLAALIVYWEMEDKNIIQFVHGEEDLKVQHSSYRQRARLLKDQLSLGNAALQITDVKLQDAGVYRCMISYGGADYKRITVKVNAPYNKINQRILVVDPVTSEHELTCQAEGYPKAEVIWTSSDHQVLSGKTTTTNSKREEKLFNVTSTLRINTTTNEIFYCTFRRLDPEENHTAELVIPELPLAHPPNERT
Assay: PD-1/PD-L1 Homogenous Time-Resolved Fluorescence (HTRF) binding assay
Settings: not given
In short: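 HTRF read-out using europium cryptate anti-Ig (1 nM) and APC anti-His (20 nM) on extracellular-domain fusion proteins in dPBS/0.1% BSA/0.05% Tween-20. Inhibitor first incubated 15 min with 10 nM PD-L1-His, followed by 20 nM PD-1-Ig for another 15 min.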

| SMILES | IC50 [nM] |
| --- | --- |
| CCCC[C@H]1C(=O)N(C)[C@@H](CCCC)C(=O)N[C@@H](CC(C)C)C(=O)N[C@H](C(=O)NCC(N)=O)CSCC(=O)N[C@@H](Cc2ccc(O)cc2)C(=O)N(C)[C@@H](C)C(=O)N[C@@H](CC(N)=O)C(=O)N2CCC[C@H]2C(=O)N[C@@H](CNC(=O)Oc2ccc3ccccc3c2)C(=O)N[C@@H](CC(C)C)C(=O)N2C[C@H](O)C[C@H]2C(=O)N[C@@H](Cc2c[nH]c3ccccc23)C(=O)N[C@@H](CCN)C(=O)N[C@@H](Cc2cn(CC(=O)O)c3ccccc23)C(=O)N1C [Example 3045] ({CH2CO}-Y[NMeA]NP[Dap](X20)L[Hyp]W[Dab][Trp(1-CH2COOH)][NMeNle][NMeNle]LCG-NH2; thioether N-14) | 1.3 |

Same assay, conditions: PD-L1-His 10 nM pre-incubated with inhibitor, PD-1-Ig 20 nM; read-out: HTRF IC50

| SMILES | IC50 [nM] |
| --- | --- |
| CCCC[C@H]1C(=O)N(C)[C@@H](CCCC)C(=O)N[C@@H](CC(C)C)C(=O)N[C@H](C(=O)NCC(N)=O)CSCC(=O)N[C@@H](Cc2ccc(O)cc2)C(=O)N(C)[C@@H](C)C(=O)N[C@@H](CC(N)=O)C(=O)N2CCC[C@H]2C(=O)N[C@@H](CNC(=S)Nc2c(Cl)c(Cl)cc(Cl)c2Cl)C(=O)N[C@@H](CC(C)C)C(=O)N2C[C@H](O)C[C@H]2C(=O)N[C@@H](Cc2c[nH]c3ccccc23)C(=O)N[C@@H](CCNC(=S)Nc2c(Cl)c(Cl)cc(Cl)c2Cl)C(=O)N[C@@H](Cc2cn(CC(=O)O)c3ccccc23)C(=O)N1C [Example 1134] ({CH2CO}-Y[NMeA]NP[Dap](X67)L[Hyp]W[Dab](X67)[Trp(1-CH2COOH)][NMeNle][NMeNle]LCG-NH2; thioether N-14) | 2.4 |
| CCCC[C@H]1C(=O)N(C)[C@@H](CCCC)C(=O)N[C@@H](CC(C)C)C(=O)N[C@H](C(=O)NCC(N)=O)CSCC(=O)N[C@@H](Cc2ccc(O)cc2)C(=O)N(C)[C@@H](C)C(=O)N[C@@H](CC(N)=O)C(=O)N2CCC[C@H]2C(=O)N[C@@H](CNC(=O)c2cnccn2)C(=O)N[C@@H](CC(C)C)C(=O)N2C[C@H](O)C[C@H]2C(=O)N[C@@H](Cc2c[nH]c3ccccc23)C(=O)N[C@@H](CCNC(=O)c2cnccn2)C(=O)N[C@@H](Cc2cn(CC(=O)OC)c3ccccc23)C(=O)N1C [Example 1002] ({CH2CO}-Y[NMeA]NP[Dap](Pyrazinecarbonyl)L[Hyp]W[Dab](Pyrazinecarbonyl)[Trp(1-CH2CO2Me)][NMeNle][NMeNle]LCG-NH2; thioether N-14) | 3.5 |
| CCCC[C@H]1C(=O)N(C)[C@@H](CCCC)C(=O)N[C@@H](CC(C)C)C(=O)N[C@H](C(=O)NCC(N)=O)CSCC(=O)N[C@@H](Cc2ccc(O)cc2)C(=O)N(C)[C@@H](C)C(=O)N[C@@H](CC(N)=O)C(=O)N2CCC[C@H]2C(=O)N[C@@H](CNC(=S)Nc2ccc(-n3cnc(Cl)c3)c(OC)c2)C(=O)N[C@@H](CC(C)C)C(=O)N2C[C@H](O)C[C@H]2C(=O)N[C@@H](Cc2c[nH]c3ccccc23)C(=O)N[C@@H](CCNC(=S)Nc2ccc(-n3cnc(Cl)c3)c(OC)c2)C(=O)N[C@@H](Cc2cn(CC(=O)O)c3ccccc23)C(=O)N1C [Example 1091] ({CH2CO}-Y[NMeA]NP[Dap](X23)L[Hyp]W[Dab](X23)[Trp(1-CH2COOH)][NMeNle][NMeNle]LCG-NH2; thioether N-14) | 4.3 |
| CCCC[C@H]1C(=O)N(C)[C@@H](CCCC)C(=O)N[C@@H](CC(C)C)C(=O)N[C@H](C(=O)NCC(N)=O)CSCC(=O)N[C@@H](Cc2ccc(O)cc2)C(=O)N(C)[C@@H](C)C(=O)N[C@@H](CC(N)=O)C(=O)N2CCC[C@H]2C(=O)N[C@@H](CNC(=O)Nc2ccc(Oc3ccccc3)cc2)C(=O)N[C@@H](CC(C)C)C(=O)N2C[C@H](O)C[C@H]2C(=O)N[C@@H](Cc2c[nH]c3ccccc23)C(=O)N[C@@H](CCNC(=O)Nc2ccc(Oc3ccccc3)cc2)C(=O)N[C@@H](Cc2cn(CC(=O)O)c3ccccc23)C(=O)N1C [Example 1023] ({CH2CO}-Y[NMeA]NP[Dap]([CO-X29])L[Hyp]W[Dab]([CO-X29])[Trp(1-CH2COOH)][NMeNle][NMeNle]LCG-NH2; thioether N-14) | 32 |

More lines, now with the values ahead:

| IC50 [nM] | SMILES |
| --- | --- |
| 2.6 | CCCC[C@H]1C(=O)N(C)[C@@H](CCCC)C(=O)N[C@@H](CC(C)C)C(=O)N[C@H](C(=O)NCC(N)=O)CSCC(=O)N[C@@H](Cc2ccc(O)cc2)C(=O)N(C)[C@@H](C)C(=O)N[C@@H](CC(N)=O)C(=O)N2CCC[C@H]2C(=O)N[C@@H](CNC(=S)Nc2ccc(F)cc2Cl)C(=O)N[C@@H](CC(C)C)C(=O)N2C[C@H](O)C[C@H]2C(=O)N[C@@H](Cc2c[nH]c3ccccc23)C(=O)N[C@@H](CCN)C(=O)N[C@@H](Cc2cn(CC(=O)O)c3ccccc23)C(=O)N1C [Example 1030] ({CH2CO}-Y[NMeA]NP[Dap](X9)L[Hyp]W[Dab][Trp(1-CH2COOH)][NMeNle][NMeNle]LCG-NH2; thioether N-14) |
| 2.7 | CCCC[C@H]1C(=O)N(C)[C@@H](CCCC)C(=O)N[C@@H](CC(C)C)C(=O)N[C@H](C(=O)NCC(N)=O)CSCC(=O)N[C@@H](Cc2ccc(O)cc2)C(=O)N(C)[C@@H](C)C(=O)N[C@@H](CC(N)=O)C(=O)N2CCC[C@H]2C(=O)N[C@@H](CNC(=O)c2cc3ccccc3o2)C(=O)N[C@@H](CC(C)C)C(=O)N2C[C@H](O)C[C@H]2C(=O)N[C@@H](Cc2c[nH]c3ccccc23)C(=O)N[C@@H](CCNC(=O)c2cc3ccccc3o2)C(=O)N[C@@H](Cc2cn(CC(=O)O)c3ccccc23)C(=O)N1C [Example 3036] ({CH2CO}-Y[NMeA]NP[Dap](Benzofuran(2-CO))L[Hyp]W[Dab](Benzofuran(2-CO))[Trp(1-CH2COOH)][NMeNle][NMeNle]LCG-NH2; thioether N-14) |
| 4.2 | CCCC[C@H]1C(=O)N(C)[C@@H](CCCC)C(=O)N[C@@H](CC(C)C)C(=O)N[C@H](C(=O)NCC(N)=O)CSCC(=O)N[C@@H](Cc2ccc(O)cc2)C(=O)N(C)[C@@H](C)C(=O)N[C@@H](CC(N)=O)C(=O)N2CCC[C@H]2C(=O)N[C@@H](CNC(=S)Nc2ccccn2)C(=O)N[C@@H](CC(C)C)C(=O)N2C[C@H](O)C[C@H]2C(=O)N[C@@H](Cc2c[nH]c3ccccc23)C(=O)N[C@@H](CCNC(=S)Nc2ccccn2)C(=O)N[C@@H](Cc2cn(CC(=O)O)c3ccccc23)C(=O)N1C [Example 1021] ({CH2CO}-Y[NMeA]NP[Dap](X21)L[Hyp]W[Dab](X21)[Trp(1-CH2COOH)][NMeNle][NMeNle]LCG-NH2; thioether N-14) |
| 9.2 | CCCC[C@H]1C(=O)N(C)[C@@H](CCCC)C(=O)N[C@@H](CC(C)C)C(=O)N[C@H](C(=O)NCC(N)=O)CSCC(=O)N[C@@H](Cc2ccc(O)cc2)C(=O)N(C)[C@@H](C)C(=O)N[C@@H](CC(N)=O)C(=O)N2CCC[C@H]2C(=O)N[C@@H](CNC(=O)Nc2cc3ccccc3s2)C(=O)N[C@@H](CC(C)C)C(=O)N2C[C@H](O)C[C@H]2C(=O)N[C@@H](Cc2c[nH]c3ccccc23)C(=O)N[C@@H](CCN)C(=O)N[C@@H](Cc2cn(CC(=O)O)c3ccccc23)C(=O)N1C [Example 3032] ({CH2CO}-Y[NMeA]NP[Dap]([CO-X45])L[Hyp]W[Dab][Trp(1-CH2COOH)][NMeNle][NMeNle]LCG-NH2; thioether N-14) |
| 3 | CCCC[C@H]1C(=O)N(C)[C@@H](CCCC)C(=O)N[C@@H](CC(C)C)C(=O)N[C@H](C(=O)NCC(N)=O)CSCC(=O)N[C@@H](Cc2ccc(O)cc2)C(=O)N(C)[C@@H](C)C(=O)N[C@@H](CC(N)=O)C(=O)N2CCC[C@H]2C(=O)N[C@@H](CNC(=O)Nc2ccc3c(c2)OCCO3)C(=O)N[C@@H](CC(C)C)C(=O)N2C[C@H](O)C[C@H]2C(=O)N[C@@H](Cc2c[nH]c3ccccc23)C(=O)N[C@@H](CCNC(=O)Nc2ccc3c(c2)OCCO3)C(=O)N[C@@H](Cc2cn(CC(=O)O)c3ccccc23)C(=O)N1C [Example 3059] ({CH2CO}-Y[NMeA]NP[Dap]([CO-X71])L[Hyp]W[Dab]([CO-X71])[Trp(1-CH2COOH)][NMeNle][NMeNle]LCG-NH2; thioether N-14) |
